From ChEMBL document CHEMBL1201862, “PubChem BioAssay data set” (2004)
Calls of active or inactive are those of the source.

Columns and labels:
[1] = YAP1 pathway inhibition via CTGF transcript levels, dose response, cell-based, DLD1 colon cancer, RT-qPCR, cherry-pick (AID 1053122); assay type: functional; conditions: Cancer cell lines
[2] = P. falciparum Dd2 growth inhibitors, dose response, SYBR Green, dry powder samples, set 9 (AID 1159568); assay type: functional, cell-based
[3] = target: Induced myeloid leukemia cell differentiation protein Mcl-1 (Homo sapiens, UniProt Q07820); assay type: functional
[4] = target: T1, Low molecular weight phosphotyrosine protein phosphatase (Homo sapiens, UniProt P24666); assay type: functional; conditions: read-out: IC50_Mean
T1 sequence (P24666 whole entry): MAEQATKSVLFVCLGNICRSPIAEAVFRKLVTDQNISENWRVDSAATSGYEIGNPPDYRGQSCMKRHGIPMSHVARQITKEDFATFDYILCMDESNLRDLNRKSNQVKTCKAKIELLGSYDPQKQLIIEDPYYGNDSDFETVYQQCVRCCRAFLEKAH

[5] = target: T1, Low molecular weight phosphotyrosine protein phosphatase; assay type: functional; conditions: read-out: IC50_Mean; remark: listed apart in the source
[6] = cells; assay type: functional, cell-based
[7] = target: T2, Nuclear receptor subfamily 0 group B member 1 (Homo sapiens, UniProt P51843); assay type: functional, cell-based;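 also: HEK293T cells transfected with SF-1 and DAX-1 plus StAR promoter luciferase reporter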
T2 sequence (P51843 whole entry): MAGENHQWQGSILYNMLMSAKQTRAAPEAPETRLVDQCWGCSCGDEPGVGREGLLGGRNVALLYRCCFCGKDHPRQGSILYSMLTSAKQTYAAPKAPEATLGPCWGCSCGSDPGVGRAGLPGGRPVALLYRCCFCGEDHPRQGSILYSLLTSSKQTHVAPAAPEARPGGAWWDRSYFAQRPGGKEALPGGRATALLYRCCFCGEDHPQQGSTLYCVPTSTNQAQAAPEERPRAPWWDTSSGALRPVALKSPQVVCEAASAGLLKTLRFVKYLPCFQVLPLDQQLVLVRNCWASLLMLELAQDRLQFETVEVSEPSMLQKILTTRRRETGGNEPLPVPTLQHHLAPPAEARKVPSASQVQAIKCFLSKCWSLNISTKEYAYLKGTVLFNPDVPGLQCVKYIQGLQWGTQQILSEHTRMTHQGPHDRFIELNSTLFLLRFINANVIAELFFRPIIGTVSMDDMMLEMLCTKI

[8] = target: Disintegrin and metalloproteinase domain-containing protein 17 (Homo sapiens, UniProt P78536); assay: exosite inhibitors of ADAM17, dose response, biochemical (AID 743260)
[9] = target: T3, Corticotropin-releasing factor receptor 2/Corticotropin-releasing factor-binding protein (Homo sapiens, UniProt P24387+Q13324); assay: Dose Response confirmation of uHTS hits for small molecule antagonists of the CRF-binding protein and CRF-R2 receptor complex.; assay type: functional; conditions: read-out: IC50_Mean
T3 sequence (Q13324 whole entry): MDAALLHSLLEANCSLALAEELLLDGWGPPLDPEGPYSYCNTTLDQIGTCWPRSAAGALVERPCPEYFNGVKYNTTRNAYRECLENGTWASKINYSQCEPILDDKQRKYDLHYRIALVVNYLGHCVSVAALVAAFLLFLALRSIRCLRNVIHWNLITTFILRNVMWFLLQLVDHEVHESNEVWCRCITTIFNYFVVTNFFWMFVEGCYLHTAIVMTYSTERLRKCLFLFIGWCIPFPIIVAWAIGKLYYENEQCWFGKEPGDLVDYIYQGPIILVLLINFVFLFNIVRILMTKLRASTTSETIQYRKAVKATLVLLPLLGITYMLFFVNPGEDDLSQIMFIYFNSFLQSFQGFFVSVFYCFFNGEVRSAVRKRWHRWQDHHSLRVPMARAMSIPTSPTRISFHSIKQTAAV
T3 sequence (P24387 whole entry): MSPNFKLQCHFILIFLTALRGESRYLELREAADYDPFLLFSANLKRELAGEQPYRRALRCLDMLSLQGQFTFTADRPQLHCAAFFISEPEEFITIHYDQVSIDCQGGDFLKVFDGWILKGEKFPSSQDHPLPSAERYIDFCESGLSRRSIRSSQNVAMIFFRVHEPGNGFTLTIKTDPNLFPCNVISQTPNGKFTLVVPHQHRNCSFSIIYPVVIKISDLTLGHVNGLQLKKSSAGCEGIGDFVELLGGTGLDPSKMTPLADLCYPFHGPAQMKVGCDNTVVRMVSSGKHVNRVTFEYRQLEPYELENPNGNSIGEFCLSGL

[10] = target: T3, Corticotropin-releasing factor receptor 2/Corticotropin-releasing factor-binding protein; assay: activators of CRF receptor 2 with binding protein – uHTS hits, confirmation (AID 602473); assay type: functional; conditions: read-out: EC50_Mean
[11] = CRF-BP/CRF-R2 complex antagonists, dose response, cell-based, uHTS hits, 384-well (AID 651639); assay type: functional, Homo sapiens; conditions: read-out: IC50_Mean
[12] = target: Paired box protein Pax-8 (Homo sapiens, UniProt Q06710); assay: inhibitors of PAX8-driven TPO luciferase reporter, dose response, RMG-I cells, cherry-pick (AID 687027); assay type: functional, cell-based;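 also: luciferase reporter driven by Pax8 target thyroperoxidase promoter measured by SteadyGlo luminescence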
[13] = NIH:OVCAR-3 ovarian cancer cell cytotoxicity, dose response, PAX8 inhibitor project, plate reader, dry powder samples (AID 743044); assay type: functional, cell-based
[14] = cytotoxicity in OVCAR8 ovarian cancer cells, dose response, PAX8 project, cell-based, plate reader, dry powder samples (AID 743197); assay type: functional; conditions: OVCAR-8
[15] = target: Long-chain-fatty-acid--AMP ligase FadD28 (Mycobacterium tuberculosis, UniProt P9WQ59); assay: Fluorescence polarization aasay to screen for inhibitors that compete for the binding of FadD28 to a bisubstrate Measured in Biochemical System Using Plate Reader - 2147-01_Inhibitor_Dose_CherryPick_Activity.; assay type: functional, Mycobacterium tuberculosis H37Rv
[16] = A549 cell cytotoxicity, dose response, cytotoxicity control, plate reader, cherry-pick, antagonist series (AID 743412); assay type: functional, cell-based
[17] = HepG2 cell cytotoxicity, dose response, cytotoxicity control, plate reader, cherry-pick, antagonist series (AID 743416); assay type: functional, cell-based
[18] = LGR2 antagonists, dose response, cell-based, HEK293, CRE-luciferase reporter, cherry pick, set 2 (AID 743343); assay type: functional;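 also: transfected cells were stimulated with diluted bursicon conditioned medium after compound addition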
[19] = HEK293 cell cytotoxicity, dose response, cytotoxicity control, plate reader, cherry-picked samples (AID 743446); assay type: functional, cell-based
[20] = IGROV1 ovarian cancer cell cytotoxicity, dose response, PAX8 inhibitor project, plate reader, dry powder samples (AID 743043); assay type: functional, cell-based; conditions: IGROV-1
[21] = target: DNA dC->dU-editing enzyme APOBEC-3A (Homo sapiens, UniProt P31941); assay: Dose Response confirmation of small molecule APOBEC3A DNA Deaminase Inhibitors via a fluorescence-based single-stranded DNA deaminase assay. [Related pubchem assays (depositor defined):AID493011, AID493024]; assay type: functional
[22] = target: DNA dC->dU-editing enzyme APOBEC-3G (Homo sapiens, UniProt Q9HC16); assay type: functional;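 also: Dose-response counterscreen measuring inhibition of APOBEC3G DNA deaminase activity, run while confirming APOBEC3A inhibitors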
[23] = target: T4, Small ubiquitin-related modifier 1 (Homo sapiens, UniProt P63165); assay: inhibitors of SUMO1 peptide binding, dose response, biochemical, fluorescence polarization, uHTS hits (AID 624382); assay type: functional; conditions: read-out: IC50_Mean
[24] = target: T4, Small ubiquitin-related modifier 1; assay: inhibitors of SUMO1 partner interactions, dose response, biochemical, FRET (AID 624383); assay type: functional; conditions: read-out: IC50_Mean
[25] = target: NS3 (Hepatitis C virus, UniProt A3EZJ3); assay: HCV NS3 helicase inhibitor potency, dose response, biochemical, fluorescence polarization, ChemBridge library (AID 743264)
[26] = tested on: Vero; assay: Vero cell cytotoxicity, cytotoxicity control for flavivirus capping enzyme inhibitors (AID 588742); assay type: functional; conditions: Chlorocebus sabaeus
[27] = target: Genome polyprotein (dengue virus type 2, UniProt P29990); assay: Dengue-2 NS5 methyltransferase inhibitors, primary screen, biochemical, confirmation dose response (AID 588689); assay type: functional
[28] = target: T5, Carboxy-terminal domain RNA polymerase II polypeptide A small phosphatase 1 (Homo sapiens, UniProt Q9GZU7); assay: inhibitors of CTDSP1, concentration-response testing, biochemical assay, absorbance-based, actives from ultra-high-throughput screening (AID 540297); assay type: functional
T5 sequence (Q9GZU7 whole entry): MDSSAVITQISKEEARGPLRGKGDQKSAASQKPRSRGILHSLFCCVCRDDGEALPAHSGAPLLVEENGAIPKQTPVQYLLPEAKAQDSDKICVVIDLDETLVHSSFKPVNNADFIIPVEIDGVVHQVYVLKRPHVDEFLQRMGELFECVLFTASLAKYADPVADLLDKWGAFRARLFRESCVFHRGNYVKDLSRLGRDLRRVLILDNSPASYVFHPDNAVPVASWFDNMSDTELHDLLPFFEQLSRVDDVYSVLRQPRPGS

[29] = target: T6, Polyadenylate-binding protein 1 (Homo sapiens, UniProt P11940); assay: PABP1 MLLE–PAM2 interaction inhibitors, dose response, miRNA deadenylation inhibitor project, biochemical, fluorescence polarization, Cy5-PAM2 peptide, secondary (AID 602260); assay type: functional; conditions: read-out: IC50_Mean
[30] = target: T6, Polyadenylate-binding protein 1; assay: PABP1 MLLE–PAM2 binding inhibitor potency, dose response, biochemical, fluorescence polarization, FITC-PAM2 peptide (AID 602259); assay type: functional; conditions: read-out: IC50_Mean
[31] = target: T7, Protein skinhead-1 (Caenorhabditis elegans, UniProt P34707); assay type: functional
T7 sequence (P34707 whole entry): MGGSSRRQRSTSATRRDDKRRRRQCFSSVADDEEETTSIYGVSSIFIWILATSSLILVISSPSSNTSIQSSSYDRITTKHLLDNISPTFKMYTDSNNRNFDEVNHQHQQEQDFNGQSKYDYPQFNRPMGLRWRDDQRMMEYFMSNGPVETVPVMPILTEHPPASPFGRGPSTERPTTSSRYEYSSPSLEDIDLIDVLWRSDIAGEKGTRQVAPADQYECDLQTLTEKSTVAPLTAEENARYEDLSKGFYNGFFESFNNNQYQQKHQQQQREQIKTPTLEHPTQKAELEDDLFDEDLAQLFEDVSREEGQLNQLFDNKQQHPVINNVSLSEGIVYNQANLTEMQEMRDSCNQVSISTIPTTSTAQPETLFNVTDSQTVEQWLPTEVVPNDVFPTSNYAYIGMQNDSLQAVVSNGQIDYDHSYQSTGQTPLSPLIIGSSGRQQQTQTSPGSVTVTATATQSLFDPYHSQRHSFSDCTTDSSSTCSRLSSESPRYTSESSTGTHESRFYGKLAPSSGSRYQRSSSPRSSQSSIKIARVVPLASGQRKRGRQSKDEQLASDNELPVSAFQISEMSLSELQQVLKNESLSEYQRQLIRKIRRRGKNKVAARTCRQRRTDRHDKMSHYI

[32] = target: Photoreceptor-specific nuclear receptor (Homo sapiens, UniProt Q9Y5X4); assay type: functional, cell-based;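 also: CHO-S cells with Gal4-NCOR and VP16-NR2E3 two-hybrid luciferase reporter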
Sequence of Photoreceptor-specific nuclear receptor (Q9Y5X4 whole entry, the tested form may be a part): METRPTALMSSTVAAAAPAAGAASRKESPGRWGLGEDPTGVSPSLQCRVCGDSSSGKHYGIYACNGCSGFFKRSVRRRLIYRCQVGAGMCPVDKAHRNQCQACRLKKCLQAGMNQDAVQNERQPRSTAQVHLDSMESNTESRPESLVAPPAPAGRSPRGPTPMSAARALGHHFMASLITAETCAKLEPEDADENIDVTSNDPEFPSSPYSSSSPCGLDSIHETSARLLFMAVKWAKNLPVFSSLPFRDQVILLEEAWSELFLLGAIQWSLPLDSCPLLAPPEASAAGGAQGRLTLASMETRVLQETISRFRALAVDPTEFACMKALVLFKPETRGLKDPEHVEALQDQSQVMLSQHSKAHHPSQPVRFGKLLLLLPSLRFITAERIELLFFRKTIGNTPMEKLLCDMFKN

T4 sequence (P63165 whole entry): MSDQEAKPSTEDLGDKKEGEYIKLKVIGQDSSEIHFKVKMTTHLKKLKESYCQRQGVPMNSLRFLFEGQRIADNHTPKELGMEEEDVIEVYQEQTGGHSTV
Sequence of Long-chain-fatty-acid--AMP ligase FadD28 (P9WQ59 whole entry): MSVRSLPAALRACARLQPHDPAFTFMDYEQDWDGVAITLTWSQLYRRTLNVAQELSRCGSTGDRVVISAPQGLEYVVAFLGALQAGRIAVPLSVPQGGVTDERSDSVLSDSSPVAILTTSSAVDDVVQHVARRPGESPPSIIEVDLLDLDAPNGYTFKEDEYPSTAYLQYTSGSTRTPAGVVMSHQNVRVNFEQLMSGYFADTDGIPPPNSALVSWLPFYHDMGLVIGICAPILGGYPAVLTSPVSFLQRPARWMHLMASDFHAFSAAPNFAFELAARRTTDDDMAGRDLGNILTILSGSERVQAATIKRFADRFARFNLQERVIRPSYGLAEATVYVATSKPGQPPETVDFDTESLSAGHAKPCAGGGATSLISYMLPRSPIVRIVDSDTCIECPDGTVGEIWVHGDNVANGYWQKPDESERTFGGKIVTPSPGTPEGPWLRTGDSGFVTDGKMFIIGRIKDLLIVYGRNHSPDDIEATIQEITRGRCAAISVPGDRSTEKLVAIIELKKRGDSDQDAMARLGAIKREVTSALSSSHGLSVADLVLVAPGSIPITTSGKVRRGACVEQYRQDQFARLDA
Sequence of Paired box protein Pax-8 (Q06710 whole entry): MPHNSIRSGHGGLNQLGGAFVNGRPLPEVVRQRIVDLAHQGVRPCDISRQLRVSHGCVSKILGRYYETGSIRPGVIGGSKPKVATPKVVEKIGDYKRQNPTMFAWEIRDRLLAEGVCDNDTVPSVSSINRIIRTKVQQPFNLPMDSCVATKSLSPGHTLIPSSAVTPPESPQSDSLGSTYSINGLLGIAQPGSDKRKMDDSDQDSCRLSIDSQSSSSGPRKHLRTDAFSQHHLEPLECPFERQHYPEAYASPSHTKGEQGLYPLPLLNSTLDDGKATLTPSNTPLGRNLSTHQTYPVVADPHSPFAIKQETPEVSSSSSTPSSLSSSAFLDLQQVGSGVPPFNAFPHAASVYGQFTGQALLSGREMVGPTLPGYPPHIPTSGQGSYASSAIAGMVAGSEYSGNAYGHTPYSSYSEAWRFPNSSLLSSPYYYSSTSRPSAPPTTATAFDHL
Sequence of NS3 (A3EZJ3 whole entry): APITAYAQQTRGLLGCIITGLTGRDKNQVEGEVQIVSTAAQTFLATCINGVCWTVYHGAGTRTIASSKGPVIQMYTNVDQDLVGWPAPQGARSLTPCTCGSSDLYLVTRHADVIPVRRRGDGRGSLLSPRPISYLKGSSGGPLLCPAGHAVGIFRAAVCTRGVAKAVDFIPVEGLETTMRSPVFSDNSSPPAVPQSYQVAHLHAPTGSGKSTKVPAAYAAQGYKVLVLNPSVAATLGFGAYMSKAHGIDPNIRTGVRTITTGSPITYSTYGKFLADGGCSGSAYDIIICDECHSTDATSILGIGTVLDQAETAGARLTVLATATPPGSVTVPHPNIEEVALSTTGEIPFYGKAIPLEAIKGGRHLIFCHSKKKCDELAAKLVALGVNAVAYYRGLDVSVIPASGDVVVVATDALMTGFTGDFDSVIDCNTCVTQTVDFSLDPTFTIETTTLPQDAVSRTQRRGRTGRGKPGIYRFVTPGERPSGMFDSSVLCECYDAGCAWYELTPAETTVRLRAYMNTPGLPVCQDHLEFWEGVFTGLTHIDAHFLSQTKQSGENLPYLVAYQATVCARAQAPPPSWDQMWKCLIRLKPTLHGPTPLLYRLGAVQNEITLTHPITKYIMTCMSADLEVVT
T6 sequence (P11940 whole entry): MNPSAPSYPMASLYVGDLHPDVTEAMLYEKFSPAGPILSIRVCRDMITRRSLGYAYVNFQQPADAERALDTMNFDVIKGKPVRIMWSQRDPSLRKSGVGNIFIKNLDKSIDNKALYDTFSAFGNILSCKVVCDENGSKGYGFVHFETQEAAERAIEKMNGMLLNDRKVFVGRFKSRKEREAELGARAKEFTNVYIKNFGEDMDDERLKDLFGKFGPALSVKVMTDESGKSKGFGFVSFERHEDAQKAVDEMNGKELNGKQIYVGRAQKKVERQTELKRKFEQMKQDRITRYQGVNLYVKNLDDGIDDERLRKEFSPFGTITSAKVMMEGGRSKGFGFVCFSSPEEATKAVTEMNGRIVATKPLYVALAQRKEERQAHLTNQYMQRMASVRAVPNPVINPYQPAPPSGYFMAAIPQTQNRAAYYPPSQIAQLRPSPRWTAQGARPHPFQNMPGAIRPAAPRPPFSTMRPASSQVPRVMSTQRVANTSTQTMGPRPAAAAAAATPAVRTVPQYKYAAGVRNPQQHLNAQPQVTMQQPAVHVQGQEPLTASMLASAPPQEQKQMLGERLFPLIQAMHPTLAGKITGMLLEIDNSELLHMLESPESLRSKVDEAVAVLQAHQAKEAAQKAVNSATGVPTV
Sequence of DNA dC->dU-editing enzyme APOBEC-3A (P31941 whole entry): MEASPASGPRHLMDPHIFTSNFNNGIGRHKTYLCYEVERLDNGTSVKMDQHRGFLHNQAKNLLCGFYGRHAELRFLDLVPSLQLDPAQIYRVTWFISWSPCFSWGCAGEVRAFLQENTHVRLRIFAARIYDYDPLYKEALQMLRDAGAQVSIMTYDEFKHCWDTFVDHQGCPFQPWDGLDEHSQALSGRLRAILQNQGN
Sequence of DNA dC->dU-editing enzyme APOBEC-3G (Q9HC16 whole entry): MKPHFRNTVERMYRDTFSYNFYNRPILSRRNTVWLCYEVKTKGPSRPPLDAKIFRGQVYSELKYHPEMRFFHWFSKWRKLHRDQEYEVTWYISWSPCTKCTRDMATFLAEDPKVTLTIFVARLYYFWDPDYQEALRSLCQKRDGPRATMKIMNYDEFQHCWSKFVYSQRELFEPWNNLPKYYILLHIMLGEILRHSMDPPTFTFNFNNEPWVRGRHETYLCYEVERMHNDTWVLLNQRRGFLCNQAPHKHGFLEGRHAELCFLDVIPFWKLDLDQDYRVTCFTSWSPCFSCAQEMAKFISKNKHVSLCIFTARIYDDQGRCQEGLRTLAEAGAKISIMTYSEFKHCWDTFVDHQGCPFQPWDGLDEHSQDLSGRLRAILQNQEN
Sequence of Induced myeloid leukemia cell differentiation protein Mcl-1 (Q07820 whole entry): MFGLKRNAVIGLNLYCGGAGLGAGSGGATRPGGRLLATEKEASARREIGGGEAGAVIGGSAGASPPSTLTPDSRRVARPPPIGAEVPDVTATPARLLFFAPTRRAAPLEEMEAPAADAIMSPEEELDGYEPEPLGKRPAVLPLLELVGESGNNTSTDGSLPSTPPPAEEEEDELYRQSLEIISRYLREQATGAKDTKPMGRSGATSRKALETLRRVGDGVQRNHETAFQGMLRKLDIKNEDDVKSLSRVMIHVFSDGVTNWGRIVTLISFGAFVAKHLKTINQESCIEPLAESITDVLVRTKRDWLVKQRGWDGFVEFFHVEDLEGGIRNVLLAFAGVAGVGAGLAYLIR
Sequence of Disintegrin and metalloproteinase domain-containing protein 17 (P78536 whole entry, the tested form may be a part): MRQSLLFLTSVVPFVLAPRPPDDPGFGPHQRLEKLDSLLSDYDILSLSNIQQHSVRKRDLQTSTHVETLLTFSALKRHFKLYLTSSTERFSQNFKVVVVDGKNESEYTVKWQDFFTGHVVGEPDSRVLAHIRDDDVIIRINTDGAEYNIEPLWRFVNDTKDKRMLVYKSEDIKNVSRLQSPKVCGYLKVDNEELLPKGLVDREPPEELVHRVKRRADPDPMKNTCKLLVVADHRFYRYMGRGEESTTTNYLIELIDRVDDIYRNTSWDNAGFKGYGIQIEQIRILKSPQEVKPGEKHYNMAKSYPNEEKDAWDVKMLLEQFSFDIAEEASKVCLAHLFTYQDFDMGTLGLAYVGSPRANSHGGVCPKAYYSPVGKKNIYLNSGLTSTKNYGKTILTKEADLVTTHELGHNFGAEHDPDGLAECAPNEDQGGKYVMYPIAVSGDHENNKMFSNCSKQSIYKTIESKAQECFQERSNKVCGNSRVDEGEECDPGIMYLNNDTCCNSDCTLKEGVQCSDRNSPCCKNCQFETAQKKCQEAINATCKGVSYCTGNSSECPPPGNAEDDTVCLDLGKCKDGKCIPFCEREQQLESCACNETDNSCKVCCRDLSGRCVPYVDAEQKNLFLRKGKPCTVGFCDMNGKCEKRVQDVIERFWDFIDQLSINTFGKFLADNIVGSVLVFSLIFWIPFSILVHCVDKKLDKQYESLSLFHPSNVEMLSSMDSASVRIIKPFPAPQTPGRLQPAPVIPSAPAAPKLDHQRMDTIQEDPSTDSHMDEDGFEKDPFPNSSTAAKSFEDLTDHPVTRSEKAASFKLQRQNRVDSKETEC

SMILES: C[C@H]1CN([C@@H](C)CO)C(=O)c2cc(C#Cc3ccccc3)cnc2O[C@H]1CN(C)C(=O)c1ccccc1
- AC50 [1]: 17.8 µM (active)
- AC50 [2]: 1.99 µM (active)

SMILES: Cc1ccc(NC2=NC(=O)S/C2=C\c2ccco2)cc1
- IC50 [3]: 7.28 µM (active)
- IC50 [4]: > 80 µM (inactive)
- IC50 [5]: 23.9 µM (inactive)

SMILES: O=C(COc1ccc(F)cc1)Nc1ccc2c(c1)OCCO2
- IC50 [6]: > 67.6 µM (inactive)
- IC50 [7]: > 67.6 µM (inactive)

SMILES: C/C(=N\N=C(/N)SC1CC(=O)N(c2ccccc2)C1=O)c1cccs1 (stereo not drawn)
- IC50 [8]: > 69.5 µM (inactive)

SMILES: Cc1cc(C(=O)CN2C(=O)NC(C)(CC(C)C)C2=O)c(C)n1-c1ccc2c(c1)OCO2 (stereo not drawn)
- IC50 [9]: 12.8 µM (active)
- EC50 [10]: > 53 µM (inactive)
- IC50 [11]: 2.36 µM (active)

SMILES: C[C@@H]1CCCCO[C@H](CN(C)S(=O)(=O)c2ccccc2)[C@H](C)CN([C@@H](C)CO)C(=O)c2cc(NS(=O)(=O)c3ccc(Cl)cc3)ccc2O1
- AC50 [12]: 6.18 µM (active)
- AC50 [13]: 46.7 µM (active)
- AC50 [14]: > 70 µM (inactive)

SMILES: CCOC(=O)c1ccc(NC(=O)Nc2ccc3c(c2)OCCO3)cc1
- AC50 [15]: 59.3 µM (active)

SMILES: CCOCCCn1c(SCc2nc3ccccc3s2)nc2ccccc2c1=O
- EC50 [10]: > 53 µM (inactive)
- AC50 [16]: 29.8 µM (active)
- AC50 [17]: > 52 µM (inactive)
- AC50 [18]: 34.6 µM (active)
- AC50 [19]: 5.44 µM (active)

SMILES: O=C(C[C@@H]1CC[C@@H]2[C@H](COC[C@H](O)CN2Cc2ccc3c(c2)OCO3)O1)Nc1ccc(-c2ccccc2)cc1
- AC50 [12]: 9.11 µM (active)
- AC50 [20]: 41.8 µM (active)

SMILES: O=C(COC(=O)c1ccc(F)c(S(=O)(=O)N2CCOCC2)c1)Nc1ccc2[nH]c(=O)[nH]c2c1
- IC50 [21]: 16.1 µM (active)
- IC50 [22]: 25.9 µM (active)
- IC50 [23]: > 66.6 µM (inactive)
- IC50 [24]: 20.5 µM (inactive)

SMILES: CC(=O)N(C)C1=C(Cl)C(=O)c2ccccc2C1=O
- IC50 [25]: 20.4 µM (inactive)

SMILES: O=C(O)c1ccc2c(c1)C(=O)/C(=C/c1ccccc1)C2=O
- CC50 [26]: > 40 µM (active)
- IC50 [27]: 12.2 µM (active)
- IC50 [28]: 3.5 µM (active)
- IC50 [29]: > 66 µM (inactive)
- IC50 [30]: > 66 µM (inactive)
- AC50 [15]: 37.7 µM (active)

SMILES: O=C(Nc1ccc(Cl)cc1)c1ccc2c(c1)OCCO2
- IC50 [25]: 76.9 µM (active)

SMILES: Clc1cccc(-c2nc3ccc(Br)cn3c2Cc2ccccc2)c1
- IC50 [31]: > 100 µM (inactive)
- IC50 [6]: > 67.5 µM (inactive)
- IC50 [7]: > 67.5 µM (inactive)

SMILES: OC[C@@H]1CN(Cc2ccc(-c3ccccc3)cc2)C[C@H](n2cnc3c(Nc4ccccc4)ncnc32)O1
- IC50 [32]: 7.72 µM (active)

SMILES: Cc1csc2c(=O)sc(NC(=O)c3cccs3)nc12
- IC50 [4]: 8.33 µM (active)
- IC50 [5]: 36.9 µM (inactive)

SMILES: Cc1ccc([C@H]2C(C(=O)O)=CC[C@@H](c3ccc(C)cc3)N2S(=O)(=O)c2ccc(C)cc2)cc1
- IC50 [9]: 34.5 µM (active)
- EC50 [10]: 50.2 µM (active)
- IC50 [11]: > 20 µM (inactive)
